We go through 15 compounds from ChEMBL document CHEMBL1137340, “Binding of 13-amidohuprines to acetylcholinesterase: exploring the ligand-induced conformational change of the gly117-gly118 peptide bond in the oxyanion hole” (J Med Chem, 2006).

The target in assay [1] is T1, Acetylcholinesterase (Bos taurus, UniProt P23795).
T1 sequence (P23795 whole entry): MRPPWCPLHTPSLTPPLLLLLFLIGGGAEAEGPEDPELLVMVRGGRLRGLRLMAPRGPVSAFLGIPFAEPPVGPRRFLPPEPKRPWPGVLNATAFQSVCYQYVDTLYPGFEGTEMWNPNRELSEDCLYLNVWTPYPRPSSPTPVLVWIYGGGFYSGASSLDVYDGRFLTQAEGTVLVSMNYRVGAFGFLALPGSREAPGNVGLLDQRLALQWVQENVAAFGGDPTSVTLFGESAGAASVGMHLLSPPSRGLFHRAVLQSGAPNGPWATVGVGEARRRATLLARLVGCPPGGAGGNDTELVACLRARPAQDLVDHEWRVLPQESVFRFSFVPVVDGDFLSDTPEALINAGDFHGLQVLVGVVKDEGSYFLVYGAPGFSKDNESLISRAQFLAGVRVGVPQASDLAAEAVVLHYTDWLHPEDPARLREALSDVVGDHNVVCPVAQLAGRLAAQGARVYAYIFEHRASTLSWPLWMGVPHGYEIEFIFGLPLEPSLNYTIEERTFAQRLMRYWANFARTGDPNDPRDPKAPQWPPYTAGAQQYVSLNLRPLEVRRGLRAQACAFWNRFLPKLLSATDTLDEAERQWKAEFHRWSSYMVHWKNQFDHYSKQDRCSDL
Description: Inhibition of bovine erythrocyte AChE

The target in assay [2] is T1, Acetylcholinesterase. This is another data set of the same source.
Description: Inhibition of bovine erythrocyte AChE after 45 mins
The target in a further assay is Cholinesterase (Homo sapiens, UniProt P06276).
For assay [3], the target named is Acetylcholinesterase (Homo sapiens, UniProt P22303).
Description: Inhibition of human erythrocyte AChE

What is called IC50 is the concentration that gives 50% inhibition. A high value points to lower potency.

SMILES strings stand for the structures.

Chain of Acetylcholinesterase (Homo sapiens, UniProt P22303) (P22303 whole entry): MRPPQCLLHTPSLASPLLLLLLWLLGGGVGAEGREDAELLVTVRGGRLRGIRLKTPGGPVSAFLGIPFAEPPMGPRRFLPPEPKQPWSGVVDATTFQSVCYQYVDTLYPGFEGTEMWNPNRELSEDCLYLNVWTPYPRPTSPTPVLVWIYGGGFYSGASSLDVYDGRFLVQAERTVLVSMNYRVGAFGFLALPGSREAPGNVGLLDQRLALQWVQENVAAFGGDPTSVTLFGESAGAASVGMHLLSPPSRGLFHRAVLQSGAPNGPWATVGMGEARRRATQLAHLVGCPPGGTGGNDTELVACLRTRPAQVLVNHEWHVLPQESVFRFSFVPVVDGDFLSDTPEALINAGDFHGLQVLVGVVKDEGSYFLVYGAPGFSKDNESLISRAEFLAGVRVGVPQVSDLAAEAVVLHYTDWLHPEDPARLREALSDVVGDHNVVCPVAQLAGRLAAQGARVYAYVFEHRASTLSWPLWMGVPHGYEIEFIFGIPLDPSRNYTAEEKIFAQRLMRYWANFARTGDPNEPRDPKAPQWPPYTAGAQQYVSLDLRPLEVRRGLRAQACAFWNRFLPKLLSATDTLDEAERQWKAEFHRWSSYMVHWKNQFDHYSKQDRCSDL
Chain of Cholinesterase (P06276 whole entry): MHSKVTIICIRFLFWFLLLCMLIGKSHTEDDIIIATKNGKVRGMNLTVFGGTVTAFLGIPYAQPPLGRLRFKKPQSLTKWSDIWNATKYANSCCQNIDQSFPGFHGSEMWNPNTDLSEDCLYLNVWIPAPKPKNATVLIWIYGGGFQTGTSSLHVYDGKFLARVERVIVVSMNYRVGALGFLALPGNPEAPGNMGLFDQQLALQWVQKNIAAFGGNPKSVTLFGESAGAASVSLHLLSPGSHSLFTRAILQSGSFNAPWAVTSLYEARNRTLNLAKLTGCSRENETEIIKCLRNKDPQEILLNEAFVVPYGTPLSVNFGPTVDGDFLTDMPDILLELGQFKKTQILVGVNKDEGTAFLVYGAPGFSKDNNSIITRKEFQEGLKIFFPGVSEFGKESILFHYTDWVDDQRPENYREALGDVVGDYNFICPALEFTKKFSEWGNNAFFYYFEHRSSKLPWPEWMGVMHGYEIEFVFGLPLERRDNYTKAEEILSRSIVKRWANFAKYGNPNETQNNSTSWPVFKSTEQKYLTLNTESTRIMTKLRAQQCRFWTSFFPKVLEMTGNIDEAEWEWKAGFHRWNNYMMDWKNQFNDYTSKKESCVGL

Regarding `CC12CC3Cc4nc5cc(Cl)ccc5c(N)c4C(C1)C3N2S(C)(=O)=O` (racemic), the values for the half-maximal inhibitory concentration (IC50) on Acetylcholinesterase [1], against Acetylcholinesterase [2] and on Cholinesterase were 1320 nM, 304 nM and 9220 nM, respectively.
`CCC1=C[C@@H]2Cc3nc4ccccc4c(N)c3[C@H](C1)C2`: the half-inhibitory concentration (IC50) on Acetylcholinesterase [1] stood at 27.4 nM.
Turning to `CC1=CC2Cc3nc4cc(Cl)ccc4c(N)c3C(C1)C2NC=O` (racemic; form 1), the IC50 on Acetylcholinesterase [3] was 98 nM; against Cholinesterase it was over 10000 nM.
With `CC(=O)NC1C2C=C(C)CC1c1c(nc3cc(Cl)ccc3c1N)C2` (racemic; form 1), the half-maximal inhibitory concentration (IC50) stood at 1690 nM on Acetylcholinesterase [1], 1370 nM against Acetylcholinesterase [2] and 8490 nM on Cholinesterase.
Turning to `CC1=CC2Cc3nc4cc(Cl)ccc4c(N)c3C(C1)C2NC=O` (racemic; form 2), the half-inhibitory concentration (IC50) on Cholinesterase turned out to be 3980 nM.
For `CC1=CC2Cc3nc4cc(Cl)ccc4c(N)c3C(C1)C2NS(C)(=O)=O` (racemic; form 2), the half-maximal inhibitory concentration (IC50) against Acetylcholinesterase [1] stood at 1370 nM; at Acetylcholinesterase [2], 2450 nM.
Turning to `CC1=CC2Cc3nc4cc(Cl)ccc4c(N)c3C(C1)C2NS(C)(=O)=O` (racemic; form 1), the half-inhibitory concentration (IC50) was 40.5 nM against Acetylcholinesterase [3], 118 nM at Acetylcholinesterase [1], 39 nM at Acetylcholinesterase [2] and over 10000 nM at Cholinesterase.
In the case of `CC12CC3Cc4nc5cc(Cl)ccc5c(N)c4C(C1)C3N2` (racemic), the IC50 against Acetylcholinesterase [1] is 5680 nM; on Acetylcholinesterase [2] it was 4380 nM; at Cholinesterase, over 10000 nM.
`CC(=O)NC1C2C=C(C)CC1c1c(nc3cc(Cl)ccc3c1N)C2` (racemic; form 2): the values for the half-maximal inhibitory concentration (IC50) against Acetylcholinesterase [2] and at Cholinesterase were 1330 nM and over 10000 nM, respectively.
In the case of `CC1=CC2Cc3nc4cc(Cl)ccc4c(N)c3C(C1)C2N` (racemic; form 2), the figures for the concentration for half-maximal inhibition (IC50) against Acetylcholinesterase [1], against Acetylcholinesterase [2] and against Cholinesterase were 482 nM, 478 nM and 601 nM, respectively.
For the compound `CCC1=C[C@@H]2Cc3nc4cc(C)ccc4c(N)c3[C@H](C1)C2`, on Acetylcholinesterase [1], the midpoint of inhibition, the IC50, lay at 4.5 nM.
Take `CC1=CC2Cc3nc4cc(Cl)ccc4c(N)c3C(C1)C2N` (racemic; form 1): the IC50 on Acetylcholinesterase [3] is 225 nM; against Acetylcholinesterase [1] it was 389 nM; against Acetylcholinesterase [2], 447 nM; against Cholinesterase, 6480 nM.
As for `CC1=C[C@@H]2Cc3nc4cc(Cl)ccc4c(N)c3[C@H](C1)C2`, on Acetylcholinesterase [1], the half-maximal inhibitory concentration (IC50) is 1.15 nM.
The same measure, in the same setting: with `CCC1=C[C@@H]2Cc3nc4cc(Cl)ccc4c(N)c3[C@H](C1)C2` the figure was 1.3 nM.
Same read-out and setting: with `CCC1=CC2Cc3nc4cc(Cl)ccc4c(N)c3C(C1)C2` (racemic) the figure was 2.77 nM.
